Data as given in US11246912B2, “Methods for treating and diagnosing metastatic liver cancer” (HADASIT MEDICAL RESEARCH SERVICES AND DEVELOPMENT LTD., priority 2017, dated 2022).
No end group written: not given here.

Tests used:
[1] = Adropin stability during incubation with mouse serum (LC-MS); assay type: in vitro ADME; conditions: 24 hours incubation with mouse serum; read-out: adropin level remaining
Experimental: FIG. 11 is a graph showing adropin dynamic stability during incubation with mouse serum as measured with liquid chromatography mass spectrometry (LC-MS).
The next step was to assess the stability of adropin during incubation with human or mouse serum.

[2] = test system: normal kidney cells; experiment: XTT assay on normal kidney cells; assay type: cell-based; conditions: kidney cells 5×10^4 cells/well
Experimental: (§1) FIGS. 10A-10C are vertical bar graphs showing the specificity of adropin inhibition on proliferating cancer cells. No detectable effect of adropin treatment was observed (using XTT assay) on normal (A) fibroblasts (1×10^4 HF cells/well), (B) kidney cells (5×10^4 cells/well), and (C) hepatocytes (5×10^4 HepRG cells/well) in-vitro.
(§2) All cell lines were maintained in DMEM medium supplemented with 10% FCS, 1% Penicillin/Streptomycin and 1% L-Glutamine in 10 cm^2 plates in 5% humidified CO2 at 37° C. Twice a week cells were passaged. Detaching was done for MC-38, CT26 and normal cells by incubation with 1 ml trypsin for 2-3 min and then seeded (usually 1:10) in 10 ml DMEM supplemented medium which stopped the enzymatic process of trypsin. EL4 cells are grown in suspension, thus not requiring this stage. […] Cells were counted in a hemocytometer under a light microscope (magnification×10) immediately after the addition of Trypan blue solution (1:1 ratio). […] On the following day, the XTT reaction solution was added to the wells according to the cell proliferation kit (XTT based; Biological Industries, Israel) and the plate was read 2, 3 and 4 hours following, using a Magellan for Infinite F50 (Tecan, Switzerland) microplate reader at 450 nm. […]

[3] = test system: hepatocytes (HepRG cells); experiment: XTT assay on normal hepatocytes; assay type: cell-based; conditions: 5×10^4 HepRG cells/well
Experimental: as §1, §2

[4] = test system: hepatic adropin protein; experiment: Hepatic adropin protein levels after single adropin injection; assay type: in vivo, mouse; conditions: C57BL/6 mice, single i.p. injection, different doses; lasting for two days
Experimental: FIGS. 12A-12B are vertical bar graphs showing the effect of single adropin polypeptide injection on endogenous hepatic adropin RNA (A) and (B) protein levels at the indicated doses and timing following i.p. injection (n represents number of mice per group).
Adropin levels were determined using the ELISA Kit (Cloud-Clone Corp., Texas, USA) for liver or serum mice samples according to the manufacturer's protocol. The results were analyzed using Magellan for Infinite F50 (Tecan, Switzerland).
(§3) C57BL/6 mice were given a single injection of adropin at different concentrations and sacrificed at varied times afterward. […] The lower concentration induced higher effect.

[5] = test system: CT26 cells; experiment: Direct cell count, CT26 cells; assay type: cell-based
[6] = test system: MC-38 colorectal liver metastases; experiment: MC-38 colorectal liver metastases model (intra-splenic cell injection) with adropin injection; assay type: in vivo, mouse
Experimental: Metastases model—In order to obtain metastases in the liver, a well-documented model was employed using the cancer cell lines derived from C57B1/6 mice—MC-38 or EL-4 cells. The cancer cells were injected intra-splenic into MDR2-Knockout (KO) and C57B1/6 mice at two and five months of age, and after 5 minutes the spleen was removed to prevent the development of a primary tumor in the spleen. Fourteen days later, the mice were euthanized, and their livers were removed in a similar manner to that described above.
Adropin injection—The adropin peptide (corresponding to amino acids at positions 34-76) was purchased from ChinaPeptides Co., Ltd. with a purity of >95%. The peptide was injected to mice according to two protocols. For the first protocol, termed ‘short adropin treatment’, adropin was injected at 450 nmole/kg in saline (80 μl injected), i.p., twice daily, for the five days surrounding the MC-38 CRC cell injection. For the second protocol, termed ‘prolonged adropin treatment’, 450 nmole/kg of adropin was injected i.p. (100 μl injected) once every three days from the morning of MC-38 cell injection throughout the experiment until the mice were sacrificed fourteen days later (a total of five injections).
Formalin-fixed paraffin-embedded tissue slides were stained with hematoxylin-eosin (H&E) staining and analyzed under a microscope using Cellsens Entry software (Olympus, Japan). The number and size of metastases larger than 4,000 μm^2 were recorded. The number of metastases was normalized relatively to the size of the liver sample analyzed.
A synthetic peptide of adropin (34-76 aa, purity: >95%) was then used to validate the findings regarding adropin's role in protecting the liver from metastases. The peptide, or saline as control, was injected (450 nmol/kg/i.p.) to mice during the week of cancer cell injection (2 days before, day of tumor cell injection and the following two days). A significant decrease of over 2.5-fold in the metastases size was observed, in the adropin-injected mice (FIG. 4B).
A further protocol was employed where adropin was injected every 3 days throughout the entire experiment period (14 days), starting from the morning of the cancer cell injection.
The mice were injected every two days with adropin (0.01 or 0.05 mg/i.p. injection) or saline starting from the morning of the MC-38 cell injection until being sacrificed two weeks later.

[7] = test system: CT26 colorectal cancer cell line; experiment: XTT metabolic assay, CT26 cells; assay type: cell-based; conditions: CT26 seeded 5×10^3 cells/well
Experimental: FIGS. 9A-9D are vertical bar graphs showing the inhibitory effect of adropin on colorectal cancer cells.
(§4) All cell lines were maintained in DMEM medium supplemented with 10% FCS, 1% Penicillin/Streptomycin and 1% L-Glutamine in 10 cm^2 plates in 5% humidified CO2 at 37° C. Twice a week cells were passaged. Detaching was done for MC-38, CT26 and normal cells by incubation with 1 ml trypsin for 2-3 min and then seeded (usually 1:10) in 10 ml DMEM supplemented medium which stopped the enzymatic process of trypsin. EL4 cells are grown in suspension, thus not requiring this stage. For the experiments, after the trypsin detachment, 1 ml of cells was transferred into 13 ml medium and then the cells were centrifuged (1,400 rpm, 10 min, room temperature (RT)) and resuspended in 1 ml of fresh medium (for in vitro experiments) or sterile PBS×l (for mouse injections in vivo). Cells were counted in a hemocytometer under a light microscope (magnification×10) immediately after the addition of Trypan blue solution (1:1 ratio). Non-stained cells were considered viable. […] On the following day, the XTT reaction solution was added to the wells according to the cell proliferation kit (XTT based; Biological Industries, Israel) and the plate was read 2, 3 and 4 hours following, using a Magellan for Infinite F50 (Tecan, Switzerland) microplate reader at 450 nm.

[8] = test system: normal fibroblasts (HF cells); experiment: XTT assay on normal fibroblasts; assay type: cell-based; conditions: 1×10^4 HF cells/well
Experimental: as §1, §2

[9] = test system: MC38 cells; experiment: Direct cell count, MC38 cells; assay type: cell-based, murine; conditions: all tested seeding concentrations, up to 5×10^4 cells/well; compared with XTT
Experimental: as §4, with “nm. […]” for “nm.”

[10] = test system: MC-38 (colorectal cancer cell line); experiment: XTT cell-proliferation test, MC-38 cells; assay type: cell-based, murine
Experimental: All cell lines were maintained in DMEM medium supplemented with 10% FCS, 1% Penicillin/Streptomycin and 1% L-Glutamine in 10 cm^2 plates in 5% humidified CO2 at 37° C. Twice a week cells were passaged. Detaching was done for MC-38, CT26 and normal cells by incubation with 1 ml trypsin for 2-3 min and then seeded (usually 1:10) in 10 ml DMEM supplemented medium which stopped the enzymatic process of trypsin. EL4 cells are grown in suspension, thus not requiring this stage. For the experiments, after the trypsin detachment, 1 ml of cells was transferred into 13 ml medium and then the cells were centrifuged (1,400 rpm, 10 min, room temperature (RT)) and resuspended in 1 ml of fresh medium (for in vitro experiments) or sterile PBS×l (for mouse injections in vivo). Cells were counted in a hemocytometer under a light microscope (magnification×10) immediately after the addition of Trypan blue solution (1:1 ratio). Non-stained cells were considered viable. For in-vivo mouse injections, the cells were diluted in sterile PBS xl to a final concentration of 5×10^4 for MC-38 cells or 5×10^5 for EL-4 cells per 100 μl. For XTT in vitro experiments, the cells were seeded in a 96-well plate (100 μl per well) in the morning and in the afternoon (once the cells adhered) the medium was changed according to the treatment (DMEM, Adropin 25 ng/ml, Adropin 50 ng/ml or Adropin 100 ng/ml). On the following day, the XTT reaction solution was added to the wells according to the cell proliferation kit (XTT based; Biological Industries, Israel) and the plate was read 2, 3 and 4 hours following, using a Magellan for Infinite F50 (Tecan, Switzerland) microplate reader at 450 nm.
To test adropin's direct effects on MC-38 cells, XTT cell-proliferation tests were performed with adropin added to the medium at different concentrations (25-100 ng/ml).

[11] = Adropin stability under storage conditions by LC-MS; assay type: physicochemical
Description: The inventors then examined the stability of adropin in vitro. For that, the inventors had set up a liquid chromatography mass spectrometry (LC-MS) assay and used it to examine the stability of adropin under different storage conditions (see Table 1). […] Contrary, approximately 50% degradation were observed when the dissolved peptide was stored at a room temperature for one month.

[12] = test system: hepatic adropin RNA; experiment: Hepatic adropin RNA levels after adropin injection (qRT-PCR); assay type: in vivo, mouse
Experimental: FIG. 14 is a vertical bar graph showing the dose effects of a single adropin administration (i.p.) at the indicated doses (0 (naïve), 0.01 mg, 0.05 mg and 0.001 mg) on hepatic adropin RNA levels (measured by qRT-PCR). Each group comprised 4 mice.
FIG. 15 is a vertical bar graph showing the efficacy of different adropin routes of administration on hepatic adropin RNA in naïve mice (measured by qRT-PCR). Adropin was injected at a dose 0.01 mg. Naïve, non-injected; IP, intraperitoneal injection; SC, subcutaneous injection; IV, intravenous injection.
as §3
The inventors then pursued optimization of adropin administration. With this respect, different doses of adropin were administered to mice and hepatic adropin RNA levels were quantified (FIG. 14). […] Reduction in the dose of the administered adropin led to a reduction in the administered adropin effect.
Further, the inventors examined whether the administration route of the adropin affects the hepatic adropin mRNA levels (FIG. 15).

[13] = adropin 450 nmol/kg i.p., short treatment, vs saline
[14] = adropin 0.01 or 0.05 mg/i.p. injection every two days for two weeks, C57BL/6 mice
[15] = prolonged adropin treatment, 450 nmol/kg i.p. every 3 days for 14 days

remaining at 24 h [1]: 55%
effect of adropin treatment on normal cells (XTT) [2]: No detectable effects
effect of adropin treatment on normal cells (XTT) [3]: No detectable effects
effect of adropin treatment on normal cells (XTT) [8]: No detectable effects
Concentration obtained by LC-MS ([11]; 4° C. for 1 month): 84 ng/mL
Concentration obtained by LC-MS ([11]; Freeze/Thaw cycle × 3 (−20° C. to RT once a week)): 92 ng/mL
Concentration obtained by LC-MS ([11]; Room temperature (RT) for 1 month): 55 ng/mL
degradation of dissolved peptide ([11]; room temperature for one month): approximately 50%
Concentration obtained by LC-MS ([11]; −20° C. for 1 month): 95 ng/mL
stability dissolved in saline ([11]; −20° C. or −80° C., up to one month): highly stable
Concentration obtained by LC-MS ([11]; −80° C. and then 4° C. for 1 week): 99 ng/mL
Concentration obtained by LC-MS ([11]; −80° C. and then RT for 1 week): 94 ng/mL
Concentration obtained by LC-MS ([11]; −80° C. and then −20° C. for 1 week): 100 ng/mL
Concentration obtained by LC-MS ([11]; −80° C. for 1 month): 95 ng/mL
Sequence: CHSRSADVDSLSESSPNSSPGPCPEKAPPPQKPSHEGSYLLQP (cysteines drawn unpaired) [adropin]
hepatic adropin protein levels [4]: large increase
inhibition by direct cell counts [5]: same trends of inhibition
BrdU levels in the hepatic parenchyma [6, 13]: no differences
number of BrdU stained cells in the tumors [6, 13]: decrease in the number of BrdU stained cells
number of hepatic metastases [6, 14]: significantly improved effects
size of hepatic metastases [6, 14]: significantly improved effects
number of liver metastases [6, 15]: reduced upon adropin injections (marginally significant)
size of liver metastases [6, 15]: reduced upon adropin injections (marginally significant)
decrease in the metastases size ([6]; short adropin treatment, 450 nmol/kg i.p., 2 days before, day of and two days after MC-38 cell injection, vs saline): over 2.5 fold
inhibition of proliferation (XTT metabolic assay, FIG. 9C) [7]: significant inhibition
inhibitory effect on the number of cells (direct cell count) [9]: even higher inhibitory effect
inhibition of proliferation (XTT metabolic assay, FIG. 9A) ([10]; MC38 seeded 5×10^3 cells/well): significant inhibition
reduction in cell number (XTT) ([10]; adropin 100 ng/ml, seeded 1×10^3 cells/well): significant reduction in cell number
reduction in cell number (XTT) ([10]; adropin 100 ng/ml, seeded 5×10^3 cells/well): significant reduction in cell number
proliferation levels (XTT) ([10]; adropin 25-100 ng/ml in medium): decrease in the proliferation levels of the colorectal cancer cells in a dose dependent manner
reduction in cell number (XTT) ([10]; adropin 25 or 100 ng/ml, seeded 5×10^4 cells/well): No significant reduction
hepatic adropin RNA levels ([12]; C57BL/6 mice, single i.p. injection, different doses, lasting for two days): large increase
hepatic adropin mRNA levels ([12]; intraperitoneal injection, 0.01 mg, naïve mice): greatest increase
hepatic adropin mRNA levels ([12]; intravenous injection, 0.01 mg, naïve mice): substantial increase
hepatic adropin mRNA levels ([12]; single i.p. dose of 0.001 mg): did not induce such an effect
hepatic adropin mRNA levels ([12]; single i.p. dose of 0.005 mg): some increase
hepatic adropin mRNA levels ([12]; single i.p. dose of 0.01 mg): substantially increase
hepatic adropin mRNA levels ([12]; subcutaneous injection, 0.01 mg, naïve mice): did not seem to increase
